Measured values from patent publication US20100254965A1, “Adenosine Signaling in Diagnosis, Treatment, and Prevention of Priapism and Erectile Dysfunction” (BOARD OF REGENTS ,THE UNIVERSITY OF TEXAS SYSTEM, priority 2006, published 2010).
“Also recorded” adds a separate entry of the source.

Experiments:
[1] = tested on: corpus cavernosal smooth muscle cells (CCSM); assay: cAMP production in primary corpus cavernosal / penile vascular smooth muscle cells (CCSM, PVSM); assay type: cell-based, mouse; settings: 10 min
Protocol: PVSM were isolated and cultured from mouse penes. The cells were be switched to serum-free medium and treated with different concentrations of adenosine with or without A2B antagonist (MRS1706-1 μM) or A2A agonist (CGS-21680-1 μM) alone for 10 min. Then cellular extracts were collected and cAMP levels were measured using an ELISA kit. The data represent mean±SE.
Data are presented as mean±SE. *, p<0.01.
(§1) FIG. 18. Adenosine stimulated both cAMP and cGMP induction in corpus cavernosal smooth muscle cells (CCSM) via A2BR activation. (a) Adenosine receptor expression profile in purified primary CCSM. CCSM were purified from adult mouse penes. […] (b) CCSM were isolated and cultured from mouse penes. The cells were switched to serum-free medium and treated with different concentrations of adenosine with or without A2BR antagonist (MRS1706-10 μM), A2AR antagonist (ZM241385-50 nM) or A2AR agonist (CGS-21680-10 μM) alone for 10 min. Then cellular extracts were collected and cAMP levels were measured using an ELISA kit. The data represent mean±SE. *p<0.05, adenosine treated versus the untreated; **p<0.05, adenosine plus MRS1706 or ZM241385 versus the adenosine treated. (c) CCSM were isolated from penes of the wild type and A2BR-deficient mice and cultured with or without adenosine (100 μM), NECA (10 μM), a potent adenosine receptor agonist, forskolin (10 μM), an adenylyl cyclase agonist. After 10 min treatment, the cellular extracts were collected and cAMP levels were measured by using a commercial enzyme immunoassay kit (Amersham Pharmacia). N=4. *p<0.05, adenosine, forskolin and NECA treated versus the untreated control. (d) Corpus cavernosal strips (CCS) were isolated from wild type and A2BR-deficient mice and treated with different concentrations of adenosine in the presence or absence of L-NAME (100 μM) or MRS1706 (10 μM). 10 min after treatment, cellular extracts were collected and cGMP levels were measured by using a commercial enzyme immunoassay kit (Amersham Pharmacia). Data are expressed as mean±SE. *p<0.05, adenosine treated versus the control; **p<0.05, adenosine treated with MRS1706 versus the adenosine treated; ***p<0.05, CCS of A2BR-deficient mice treated with adenosine versus the CCS of wild type mice treated with adenosine. N=6-7. (e) CCSM were isolated from wild type and A2BR deficient mice and cultured with or without adenosine (100 μM), NECA (10 μM), a potent adenosine receptor agonist, forskolin (10 μM), an adenylyl cyclase agonist, or diethylamine-NONOate (DEA/NO) (10 μM). After 10 min treatment, the cellular extracts were collected and cAMP levels were measured by using a commercial enzyme immunoassay kit (Amersham Pharmacia). N=4. *p<0.05, DEA/NO treated versus to the untreated control. (f) Both cAMP and cGMP induction contribute to adenosine-mediated decreased PE-induced phosphorylation of myosin light chain (MLC). CCSM and CCS were isolated and cultured with the treatment of phenylephrine (PE-10 μM) in the presence or absence of adenosine (100 μM) or L-NAME (100 μM). 10 min after treatment, cellular extracts were isolated and western blot analysis were performed. The total MLC and phosphorylated MLC at S20 were detected by specific antibodies.
(§2) Isolation of primary corpus cavernosal smooth muscle cells (CCSM). Corpus cavernosum tissues were dissected as described above. Cavernosal tissue was washed in PBS and minced into […] pieces. Segments were incubated in 5-10 ml enzyme solutions containing 0.02% collagenase A (0.272 U/mg protein, Roche, Mannheim, Germany) and 0.5% elastase (3.73 U/mg protein, Cell system, St Katharinen, Germany) in a 75 mm flask at 37° C. for 6 hours. Enzymatic digestion was terminated by adding 10 ml DMEM supplemented with 10% fetal calf serum (FCS). […]

[2] = tested on: corpus cavernosal smooth muscle cells (CCSM); assay: cGMP levels in primary CCSM / PVSM; assay type: cell-based, mouse; settings: CCSM/PVSM of both wild type and A2BR deficient mice, 10 min
From the text: Results for wild-type and A2B^−/− mouse were statistically significant, p<0.01.
as §1, with “After 10 min treatment, the cellular extracts were collected and cAMP levels were measured by using a commercial enzyme immunoassay kit (Amersham Pharmacia).” left out
as §2
Tissue and corpus cavernosum smooth muscle cell (CCSM) cAMP and cGMP measurement. Quantitative assays for cAMP and cGMP were performed by using a commercial enzyme immunoassay kit (Amersham Pharmacia). […]

[3] = tested on: corpus cavernosum of wild type, A2A-deficient and A2B-deficient mice; assay: Intracavernous injection of adenosine: intracavernous pressure (ICP) and penile erection; assay type: in vivo, mouse; settings: wild type mice
Protocol: FIG. 6. Different amounts of adenosine were injected into the corpus cavernosum of wild type, adenosine receptor A2A-deficient, and adenosine receptor A2B-deficient mice and the resulting change in ICP determined.
Methods: ADA-deficient mice and SCD transgenic mice, a well accepted priapism animal model, are the only animals known in which a persistent and prolonged penile erection occurs spontaneously. […] We have measured intracavernosal pressure and corpus cavernosal strip (CCS) relaxation with or without PEG-ADA treatment and/or a series of adenosine receptor antagonists or agonists in wild type ADA-deficient mice, and corpus cavernosal strip (CCS) relaxation with or without PEG-ADA treatment and/or a series of adenosine receptor antagonists or agonists in SCD transgenic mice, in response to nerve stimulation. We have also measured the intracavernosal pressure and CCS relaxation with or without adenosine treatment in wild type and multiple adenosine receptor deficient mice.

[4] = tested on: corpus cavernosal strips (CCS); assay: Adenosine-induced relaxation of corpus cavernosal strips (CCS); assay type: cell-based, mouse; settings: CCS of wild type mice, DCF 5 μM or 0-100 uM with adenosine 100 μM; listed as DCF
Protocol: FIG. 16. […] CCS of wild type mice were treated with different concentrations of adenosine with or without DCF (5 μM), a specific inhibitor of adenosine deaminase. Then the extent (mN) of force was monitored. (b) CCS of wild type mice were treated with 100 μM adenosine in the presence of different concentrations of DCF (0-100 uM). Then the extent of force was measured. Data are expressed as mean±SE. *p<0.05, adenosine treated versus the control, **p<0.05, DCF treated versus the adenosine treated.
FIG. 17. A2BR signaling is required for adenosine-mediated corpus cavernosal strips (CCS) relaxation. (a) CCS of wild type mice were treated with different concentrations of theophiline (1-10 μM) in the presence or absence of adenosine (100 μM). The force changes were measured by force transducer. Data are expressed as mean±SE. *p<0.05, adenosine treated versus the control, **p<0.05, theophiline treated versus the untreated, N=5. (b) CCS from wild type, A2AR, A1R A2BR and A3R-deficient mice were treated with different concentrations of adenosine. The relaxation was measured by force transducer. Data are expressed as mean±SE. *p<0.05, adenosine treated versus the wild type. (c) CCS were isolated from wild type and A2BR-deficient mice and treated with different concentrations of adenosine in the presence or absence of L-NAME (100 μM) or MRS1706 (10 μM). 10 min after treatment, cellular extracts were collected and cAMP levels were measured by using a commercial enzyme immunoassay kit (Amersham Pharmacia). Data are expressed as mean±SE. *p<0.05, adenosine treated versus the control without treatment; **p<0.05, adenosine treated with MRS1706 versus the adenosine treated alone; ***p<0.05, CCS of A2BR-deficient mice treated with adenosine versus the CCS of wild type mice treated with adenosine. N=6-7. (d) CCS of A2BR and ADA double deficient mice lost the hypersensitivity to nerve stimulation compared to ADA deficient mice.
Function experiments. The tunica albuginea was cut longitudinally, starting at the most proximal point of the corpus cavernosum (CC) toward the penile shaft, and the erectile tissue was partially dissected free from the tunica. One strip of tissue (0.3×0.3×3 mm) was obtained from each corpus cavernosum. The contractility of each isolated corpus cavernosum smooth muscle cells (CCSM) strip was measured using an isometric force transducer (AD Instrument Inc., Georgia, Vt., USA). The strip was mounted in a thermostatically controlled tissue bath containing aerated PSS (mM: 119 NaCl, 4.7 KCl, 24 NaHCO 3, 1.2 KH2PO4, 2.5 CaCl2, 1.2 MgSO4, 0.023 EDTA, and 11 glucose; 5 ml volume, 95% O2 and 5% CO2, 37° C.) and stretched to a resting tension of 0.1 mN. The contractile responses of the strips were analysed by adding 10 μM phenylephrine to the bath, and force changes were recorded in response to drug application and to electrical field stimulation. The particular electrical field stimulation parameters of 0-30V, 30 HZ with a pulse width of approximately 0.5 ms, are commonly used in the mice. […] The changes of cAMP and cGMP contents in CC strips were subsequently measured by commercial enzyme immunoassay kit (Amersham Pharmacia) (see below).

[5] = wild type CCSM/PVSM, agent alone

CCNC(=O)[C@H]1O[C@@H](n2cnc3c(N)nc(NCCc4ccc(CCC(=O)O)cc4)nc32)[C@H](O)[C@@H]1O [CGS21690C]
cAMP production [1, 5]: failed to induce cAMP production

CCN(CC)/[N+]([O-])=N/O.CCNCC [DEA/NO, diethylamine-NONOate]
cGMP levels [2]: induced cGMP production | cGMP levels ([2]; listed as diethylamine-NONOate): comparable high levels of cGMP production

CCNC(=O)[C@H]1O[C@@H](n2cnc3c(N)ncnc32)[C@H](O)[C@@H]1O [NECA, 5′-N-ethylcarbosamide adenosine]
cAMP production ([1]; CCSM/PVSM of A2BR deficient (A2B-/-) mice): essentially no effect on cAMP levels; also recorded: failed to induce cAMP production | cAMP production [1, 5]: elevate cAMP levels; also recorded: induced cAMP | cGMP levels [2]: lack of significant differences in cGMP production; also recorded: had no effect

OC[C@H]1O[C@@H](n2cnc3c2NC=NC[C@H]3O)C[C@@H]1O [deoxycoformycin]
adenosine-induced penile erection with ADA inhibitor ([3]; co-injected with adenosine): prolonged | adenosine-induced increase in pressure (ICP) with ADA inhibitor ([3]; coinjection with adenosine): prolonged the adenosine-induced increase in pressure | adenosine-induced CCS relaxation with ADA inhibitor versus adenosine alone [4]: significantly increased relaxation compared with adenosine alone; also recorded: increased the adenosine induced relaxation of CCS
